Each structure is given as a SMILES string. Read-outs that look alike come from different tables or passages of the source.

For experiment [1] the following is noted: cited from earlier work.
Experiment [2] is described as follows: Treatment of migraine headache symptoms (pain phase) with an inhaled plume of particles from an active mesh nebulizer. In kind it is in vivo, patient (adult). The protocol:
In a non-limiting example, an adult with a history of chronic migraine headaches was treated for migraine headache symptoms during the pain phase using an inhaled plume of particles from an active mesh nebulizer as described herein, and as described in U.S. patent application Ser. No. 16/836,485, titled “NEBULIZER FOR TIME-REGULATED DELIVERY”. The person was provided with an active mesh nebulizer containing a solution of sumatriptan succinate in water at 0.1996 weight % (wt %) [e.g., 4 mg sumatriptan succinate in 2 grams of water, such that (0.004 g sumatriptan succinate/2.004 g solution)*100=0.1996 wt % sumatriptan succinate] which produced a plume of particles where over 95% of the particles have individual particle diameters ranging from about 0.5 μm to about 3.0 μm. The active mesh nebulizer was configured to produce a plume of particles by nebulizing the sumatriptan succinate solution at a rate of 0.2 milliliters per minute (ml/min) for one minute, resulting in a patient dose for a first inhalation session (e.g., six 10-second inhaled plume pulses) of not more than 4 mg sumatriptan succinate.
The person had indicated in their medical history that they had regularly experienced migraine headache symptoms, at a frequency of about 3-4 episodes per week, over several months prior to the treatment.

As for `CN(C)CCc1c[nH]c2ccc(C[C@H]3COC(=O)N3)cc12` [zolmitriptan], the “relief time (symptom relief)” value in experiment [1] (sub-lingual delivery, according to theory and belief) is not above 30 min.
As for `CNS(=O)(=O)Cc1ccc2[nH]cc(CCN(C)C)c2c1` [sumatriptan succinate], the “migraine headache symptoms, self-evaluated after treatment” value in experiment [2] (one adult with chronic migraine, inhaled, 0.1996 wt % solution in water, six 10-second plume pulses, not more than 4 mg, evaluated after waiting 5 minutes) is “completely abated”. In addition, the remission after treatment entry in experiment [2] (same patient, about 3-4 episodes per week before treatment) was “more than seven days”. In addition, the “relief time (patient relief)” value in experiment [1] (intra-nasal delivery, according to theory and belief) was 30 to 60 min; in experiment [1] (sub-cutaneous delivery, after injection) it was 60 to 90 min.
